Values after ≈ are worked out from the molar mass of the structure shown. Values joined by “and” are separate entries in the source; they are usually repeats but may differ in a detail not shown here. Equal entries are not always repeated.
Tests used:
[1] = tested on: Cryptococcus neoformans; experiment: agar dilution in vitro activity test; format: cell-based; conditions: 10 organisms, Kimmig's agar, 25° C.; for MIC: read-out: GMMICS (geometric mean minimum inhibitory concentration)
Method: (§1) Organisms listed in Table 1 were tested according to an agar dilution method: Suspensions of each microorganism were prepared to contain […] colony forming units (cfu)/mL. All drugs were dissolved in a few drops of DMSO then diluted with ethanol—water (1/1, v/v) to make a stock solution of 500 μg/mL. The agar dilution method was performed in a medium of Kimmig's agar (K. A., Merck) −0.5% glycerol [R. A. Fromtling, G. K. Abruzzo and A. Ruiz, Mycopathologia, 106 (1989) 163-166]. Plates of Kimmig's agar containing serial dilutions (25 to 0.01 μg/mL) of the drugs were inoculated with 10 μL of the fungal inocula and incubated at 25° C. […] for yeasts and up to 5 days for filamentous fungi. Following incubation, GMMICs (geometric mean minimum inhibitory concentration μg/mL) were determined. In the table POCZ indicates posaconazole, ITRZ indicates itraconazole, EQUZ indicates Equaconazole, and FLUZ indicates fluconazole [Patterson, T. F., S. G. Revankar, W. R. Kirkpatrick, O. Dib, A. W. Fothergill, S. W. Redding, D. A. Sutton, and M. G. Rinaldi, J. Clin. Microbiol. 34 (1996) 1794-1797].

[2] = tested on: Microsporum canis; experiment: agar dilution in vitro activity test; format: cell-based; conditions: 6 organisms, Kimmig's agar, 25° C.; for MIC: read-out: GMMICS (geometric mean minimum inhibitory concentration)
Method: as §1

[3] = tested on: Aspergillus Flavus; experiment: agar dilution in vitro activity test; format: cell-based; conditions: 9 organisms, Kimmig's agar, 25° C.; for MIC: read-out: GMMICS (geometric mean minimum inhibitory concentration)
Method: as §1

[4] = tested on: Trichophyton rubrum; experiment: agar dilution in vitro activity test; format: cell-based; conditions: 17 organisms, Kimmig's agar, 25° C.; for MIC: read-out: GMMICS (geometric mean minimum inhibitory concentration)
Method: as §1

[5] = tested on: Candida Krusei; experiment: agar dilution in vitro activity test; format: cell-based; conditions: 22 organisms, Kimmig's agar, 25° C.; for MIC: Pichia kudriavzevii, read-out: GMMICS (geometric mean minimum inhibitory concentration)
Method: as §1

[6] = tested on: Ergosterol Biosynthesis, Candida albicans_C286; experiment: inhibition of ergosterol biosynthesis; format: cell-based, Candida albicans; conditions: Candida albicans_C286, RPMI-1640, 30° C., 48 h
Method: (§2) Compounds of the invention were tested for their ability to inhibit ergosterol biosynthesis. Testing was performed in 96-well round-bottom microtitration plates (Table 2). Cell suspensions were prepared in RPMI-1640 medium and were adjusted to give a final inoculum concentration of 0.5×10^3 to 2.5×10^3 cells/ml. The plates were incubated incubated at 30° C. for 48 h before growth was assessed. The MIC of each compounds was defined as the lowest concentration at which there was 80% inhibition of growth compared with that in a drug-free control [O. N. Breivik and J. L. Owades, Agric. Food Chem., 5 (1957) 360-363; T. F. Patterson, S. G. Revankar, W. R. Kirkpatrick, O. Dib, A. W. Fothergill, S. W. Redding, D. A. Sutton and M. G. Rinaldi, J. Clin. Microbiol., 34 (1996) 1794-1797]. Ergosterol content was calculated as a percentage of the wet weight of the cell [National Committee for Clinical Laboratory Standards. 1997. Reference method for broth dilution antifungal susceptibility testing of yeasts, Approved standard. Document M27-A, National Committee for Clinical Laboratory Standards, Wayne, Pa.].

[7] = PK study of antifungal nasal spray, plasma level after intranasal dosing; format: in vivo, Gottingen mini-pigs
Method: Experiments were performed to determine blood levels of Posaconazole formulation after intranasal dosing in Gottingen mini-pigs. A Group of three male and three female mini-pigs (ages from 6 to 9 months) were used for the studies. The vehicle used in the experiments was 5% of PEG-12 GDM in saline solution. The intranasal administration was performed with 35 mL of Luer slip syringes. HPLC-MS analyses were performed on heparinized mini-pig plasma samples obtained typically at 0 hr, 0.08 hr, 1 hr, 2 hr, 4 hr, 12 hr and 24 hr after dosing. The drug was first isolated from plasma with a sample pre-treatment. Acetonitrile were used to remove proteins in samples. An isocratic HPLC-MS method was then used to separate the drug from any potential interference. Drug levels were measured by MS detection with a multiple reaction monitoring (MRM) mode.

[8] = tested on: Ergosterol Biosynthesis, Aspergillus fumigatus_ND 158; experiment: inhibition of ergosterol biosynthesis; format: cell-based, Aspergillus fumigatus; conditions: Aspergillus fumigatus_ND 158, RPMI-1640, 30° C., 48 h
Method: as §2

## OC(Cn1cncn1)(Cn1cncn1)c1ccc(F)cc1F [FLUZ, fluconazole]
[1]
  MIC: 45 µg/mL (≈ 147 µM)
[2]
  MIC: 151 µg/mL (≈ 493 µM)
[3]
  MIC: > 235 µg/mL
[4]
  MIC: 105 µg/mL (≈ 343 µM)
[5]
  MIC: 65 µg/mL (≈ 212 µM)

## CCC(C)n1ncn(-c2ccc(N3CCN(c4ccc(OCC5COC(Cn6cncn6)(c6ccc(Cl)cc6Cl)O5)cc4)CC3)cc2)c1=O (stereo not drawn) [ITRZ, itraconazole]
[1]
  MIC: 0.49 µg/mL (≈ 0.694 µM)
[2]
  MIC: 1.2 µg/mL (≈ 1.7 µM)
[3]
  MIC: 0.35 µg/mL (≈ 0.496 µM)
[4]
  MIC: 3.1 µg/mL (≈ 4.39 µM)
[5]
  MIC: 0.6 µg/mL (≈ 0.85 µM)
[6]
  IC50: 39.1 nM

## CC[C@@H]([C@H](C)O)n1ncn(-c2ccc(N3CCN(c4ccc(OC[C@@H]5CO[C@@](Cn6cncn6)(c6ccc(F)cc6F)C5)cc4)CC3)cc2)c1=O [POCZ, posaconazole]
[1]
  MIC: 0.24 µg/mL (≈ 0.342 µM)
[2]
  MIC: 0.5 µg/mL (≈ 0.713 µM)
[3]
  MIC: 0.12 µg/mL (≈ 0.171 µM)
[4]
  MIC: 1.2 µg/mL (≈ 1.71 µM)
[5]
  MIC: 0.21 µg/mL (≈ 0.3 µM)
[7]; 0.08 hour after intranasal dosing, 5% PEG-12 GDM in saline, individual animals, female mini-pigs
  Posaconazole Level in Mini-pig Plasma: 1.23 ng/mL and 1.39 ng/mL and 1.21 ng/mL
[7]; 0.08 hour after intranasal dosing, 5% PEG-12 GDM in saline, individual animals, male mini-pigs
  Posaconazole Level in Mini-pig Plasma: 1.74 ng/mL and 1.56 ng/mL
[7]; 1 hour after intranasal dosing, 5% PEG-12 GDM in saline, individual animals, female mini-pigs
  Posaconazole Level in Mini-pig Plasma: 2.06 ng/mL and 1.86 ng/mL and 1.26 ng/mL
[7]; 1 hour after intranasal dosing, 5% PEG-12 GDM in saline, individual animals, male mini-pigs
  Posaconazole Level in Mini-pig Plasma: 1.24 ng/mL and 1.26 ng/mL
[7]; 4 hour after intranasal dosing, 5% PEG-12 GDM in saline, individual animals, female mini-pigs
  Posaconazole Level in Mini-pig Plasma: 1.28 ng/mL and 1.17 ng/mL and 1.56 ng/mL
[7]; 4 hour after intranasal dosing, 5% PEG-12 GDM in saline, individual animals, male mini-pigs
  Posaconazole Level in Mini-pig Plasma: 1.42 ng/mL and 1.46 ng/mL
[7]; 12 hour after intranasal dosing, 5% PEG-12 GDM in saline, individual animals, female mini-pigs
  Posaconazole Level in Mini-pig Plasma: 2.03 ng/mL and 2.44 ng/mL and 2.35 ng/mL
[7]; 12 hour after intranasal dosing, 5% PEG-12 GDM in saline, individual animals, male mini-pigs
  Posaconazole Level in Mini-pig Plasma: 2.41 ng/mL and 1.93 ng/mL
[7]; 24 hour after intranasal dosing, 5% PEG-12 GDM in saline, individual animals, female mini-pigs
  Posaconazole Level in Mini-pig Plasma: 1.17 ng/mL and 2.04 ng/mL and 1.46 ng/mL
[7]; 24 hour after intranasal dosing, 5% PEG-12 GDM in saline, individual animals, male mini-pigs
  Posaconazole Level in Mini-pig Plasma: 1.86 ng/mL and 1.66 ng/mL
[7]; both sexes, Gottingen, minipig, plasma, other: intranasal, 0.08 hour after intranasal dosing, 5% PEG-12 GDM in saline, individual animals, read-out: Posaconazole Level in Mini-pig Plasma
  concentration at 0.08 h: 1.35 ng/mL
[7]; both sexes, Gottingen, minipig, plasma, other: intranasal, 1 hour after intranasal dosing, 5% PEG-12 GDM in saline, individual animals, read-out: Posaconazole Level in Mini-pig Plasma
  concentration at 1 h: 1.62 ng/mL
[7]; both sexes, Gottingen, minipig, plasma, other: intranasal, 4 hour after intranasal dosing, 5% PEG-12 GDM in saline, individual animals, read-out: Posaconazole Level in Mini-pig Plasma
  concentration at 4 h: 1.26 ng/mL
[7]; both sexes, Gottingen, minipig, plasma, other: intranasal, 12 hour after intranasal dosing, 5% PEG-12 GDM in saline, individual animals, read-out: Posaconazole Level in Mini-pig Plasma
  concentration at 12 h: 1.96 ng/mL
[7]; both sexes, Gottingen, minipig, plasma, other: intranasal, 24 hour after intranasal dosing, 5% PEG-12 GDM in saline, individual animals, read-out: Posaconazole Level in Mini-pig Plasma
  concentration at 24 h: 1.86 ng/mL
[7]; intranasal dosing with formulated Posaconazole
  amount detected in mini-pig plasma after dosing (in words): Only trace amounts

## Equaconazole [EQUZ]
[1]
  GMMICS (geometric mean minimum inhibitory concentration): 0.25 µg/mL
[2]
  GMMICS (geometric mean minimum inhibitory concentration): 0.35 µg/mL
[3]
  GMMICS (geometric mean minimum inhibitory concentration): 0.09 µg/mL
[4]
  GMMICS (geometric mean minimum inhibitory concentration): 0.10 µg/mL
[5]
  GMMICS (geometric mean minimum inhibitory concentration): 0.15 µg/mL
[8]
  IC50: 9.8 nM
[6]
  IC50: 31.1 nM
